According to ChEMBL document CHEMBL5352447, “Development of [1,2]oxazoloisoindoles tubulin polymerization inhibitors: Further chemical modifications and potential therapeutic effects against lymphomas” (Eur J Med Chem, 2022):
Activity calls are given as the source filed them. No cut-off for these calls is given here.

Key:
VL51 [1] = assay: Antiproliferative activity against human VL51 cells assessed as proliferating cells at 1 uM incubated for 72 hrs by MTT assay relative to control; format: functional
[2] = Antiproliferative activity against human MINO cells assessed as proliferating cells at 1 uM incubated for 72 hrs by MTT assay relative to control; format: functional
[3] = Antiproliferative activity against human HBL1 cells assessed as proliferating cells at 1 uM incubated for 72 hrs by MTT assay relative to control; format: functional
SU-DHL10 [4] = assay: Antiproliferative activity against human SU-DHL-10 cells assessed as proliferating cells at 1 uM incubated for 72 hrs by MTT assay relative to control; format: functional
VL51 [5] = assay: Antiproliferative activity against human VL51 cells assessed as inhibition of cell proliferation incubated for 72 hrs by MTT assay; format: functional, cell-based; conditions: VL51, 72 h
[6] = Antiproliferative activity against human MINO cells assessed as inhibition of cell proliferation incubated for 72 hrs by MTT assay; format: functional, cell-based
[7] = Antiproliferative activity against human HBL1 cells assessed as inhibition of cell proliferation incubated for 72 hrs by MTT assay; format: functional, cell-based; conditions: HBL1, 72 h
SU-DHL10 [8] = assay: Antiproliferative activity against human SU-DHL-10 cells assessed as inhibition of cell proliferation incubated for 72 hrs by MTT assay; format: functional, cell-based; conditions: SU-DHL10, 72 h
MCF7 = assay: Cytotoxicity against human MCF7 cells assessed as cell growth inhibition; format: functional, cell-based
Tubulin = assay: Inhibition of tubulin assembly (unknown origin); format: protein-complex assay, Homo sapiens
Tubulin (Homo sapiens) = Tubulin (Homo sapiens) (UniProt P68371+Q9H4B7+P0DPH7+P68366+Q13509+Q71U36+P04350+Q3ZCM7+P07437+P68363+Q9BQE3+Q6PEY2+Q13885+Q9BVA1+Q9BUF5); assay: Inhibition of [3H]Colchicine binding to tubulin (unknown origin) at 5 uM relative to control; format: protein-complex assay
VL51 [9] = assay: Induction of cell cycle arrest in human VL51 cells assessed as accumulation at G2/M phase at 50 nM incubated for 24 to 72 hrs by […]; format: functional; conditions: time 24-72 hrs
MINO [10] = assay: Induction of cell cycle arrest in human MINO cells assessed as accumulation at G2/M phase at 50 nM incubated for 24 to 72 hrs by […]; format: functional; conditions: time 24-72 hrs
VL51 [11] = assay: Induction of cell cycle arrest in human VL51 cells assessed as accumulation at subG0 phase at early time point at 50 to 500 nM incubated upto 72 hrs by […]; format: functional; conditions: dose 50-500 nM
MINO [12] = assay: Induction of cell cycle arrest in human MINO cells assessed as accumulation at subG0 phase at early time point at 50 to 500 nM incubated upto 72 hrs by […]; format: functional; conditions: dose 50-500 nM
VL51 [13] = assay: Induction of apoptosis in human VL51 cells at 50 to 500 nM incubated for 24 to 72 hrs by annexin V-FITC/PI staining based analysis; format: functional, cell-based; conditions: dose 50-500 nM, time 24-72 hrs
MINO [14] = assay: Induction of apoptosis in human MINO cells at 50 to 500 nM incubated for 24 to 72 hrs by annexin V-FITC/PI staining based analysis; format: functional, cell-based; conditions: dose 50-500 nM, time 24-72 hrs
PBMC = assay: Induction of apoptosis in human PBMC cells at 500 nM incubated for 24 to 48 hrs by annexin V staining based analysis relative to control; format: toxicity, cell-based; conditions: 0.5 µM, time 24-48 hrs
MINO [15] = assay: Upregulation of CENPA in human MINO cells at 100 nM incubated for 8 to 24 hrs by RNA sequencing analysis; format: functional, cell-based; conditions: time 8-24 hrs
MINO [16] = assay: Upregulation of CCNB1 in human MINO cells at 100 nM incubated for 8 to 24 hrs by RNA sequencing analysis; format: functional, cell-based; conditions: time 8-24 hrs
MINO [17] = assay: Upregulation of CCNB2 in human MINO cells at 100 nM incubated for 8 to 24 hrs by RNA sequencing analysis; format: functional, cell-based; conditions: time 8-24 hrs
MINO [18] = assay: Upregulation of AURKA in human MINO cells at 100 nM incubated for 8 to 24 hrs by RNA sequencing analysis; format: functional, cell-based; conditions: time 8-24 hrs
MINO [19] = assay: Upregulation of PLK1 in human MINO cells at 100 nM incubated for 8 to 24 hrs by RNA sequencing analysis; format: functional, cell-based; conditions: time 8-24 hrs
MINO [20] = assay: Upregulation of CENPE in human MINO cells at 100 nM incubated for 8 to 24 hrs by RNA sequencing analysis; format: functional, cell-based; conditions: time 8-24 hrs
MINO [21] = assay: Upregulation of BIRC5 in human MINO cells at 100 nM incubated for 8 to 24 hrs by RNA sequencing analysis; format: functional, cell-based; conditions: time 8-24 hrs

| SMILES | IC50 (SU-DHL10 [8]) [nM] | IC50 (Tubulin) [nM] | inhibition (Tubulin (Homo sapiens)) [%] | Activity (VL51 [1]) [%] | Activity [2] [%] | Activity [3] [%] | Activity (SU-DHL10 [4]) [%] | IC50 (VL51 [5]) [nM] | IC50 [6] [nM] | IC50 [7] [nM] | IC50 (MCF7) [nM] | further results |
| --- | --- | --- | --- | --- | --- | --- | --- | --- | --- | --- | --- | --- |
| COc1ccc(Cn2cc3c(c2-c2ccccc2)CCc2cnoc2-3)cc1 | 280 | 2100 | 77 | 40.9 | 8.4 | 21.5 | 13 | 270 | 230 | 250 | 380 |  |
| COc1ccc(Cn2cc3c(c2-c2ccc(OC)cc2)CCc2cnoc2-3)cc1 | 1700 | 2000 | 55 | 49.4 | 29.9 | 57.1 | 47.4 | 1100 | 1100 | 1200 | > 5000 |  |
| CCOC(=O)c1c2c(cn1Cc1ccc(OC)cc1)-c1oncc1CC2 |  | 8000 |  |  |  |  |  |  |  |  | > 5000 |  |
| COc1cccc(Cn2cc3c(c2)-c2oncc2CC3)c1 | 800 | 5200 | 69 | 44.7 | 8.9 | 37.9 | 14 | 1000 | 700 | 700 | 550 |  |
| COc1ccc(Cn2cc3c(c2-c2ccccc2)CCc2cnoc2-3)cc1OC |  | 3400 | 34 |  |  |  |  |  |  |  | 4500 |  |
| COc1ccc(/C=C\c2cc(OC)c(OC)c(OC)c2)cc1O [COMBRETASTATIN A4] |  |  |  |  |  |  |  |  |  |  | 18 |  |
| COc1ccc(Cn2cc3c(c2-c2ccccc2)CCc2c(CN4CCCC4)noc2-3)cc1 |  | 12000 |  |  |  |  |  |  |  |  | > 5000 |  |

Continued, in another order:

| IC50 (SU-DHL10 [8]) [nM] | IC50 (Tubulin) [nM] | inhibition (Tubulin (Homo sapiens)) [%] | SMILES | Activity (VL51 [1]) [%] | Activity [2] [%] | Activity [3] [%] | Activity (SU-DHL10 [4]) [%] | IC50 (VL51 [5]) [nM] | IC50 [6] [nM] | IC50 [7] [nM] | IC50 (MCF7) [nM] | further results |
| --- | --- | --- | --- | --- | --- | --- | --- | --- | --- | --- | --- | --- |
| 260 | 1700 | 72 | COc1ccc(Cn2cc3c(c2-c2ccccc2)CCc2cnoc2-3)cc1N | 37.6 | 10.5 | 27.6 | 13 | 250 | 230 | 270 | 370 |  |
| 500 | 3200 | 34 | COc1ccc(Cn2cc3c(c2-c2cc(OC)c(OC)c(OC)c2)CCc2cnoc2-3)cc1 | 37.9 | 8.7 | 30.7 | 12.7 | 270 | 370 | 470 | 600 |  |
|  | 1500 | 55 | COc1ccc(Cn2cc3c(c2-c2ccccc2)CCc2cnoc2-3)cc1[N+](=O)[O-] |  |  |  |  |  |  |  | 340 |  |
| 100 | 1700 | 57 | COc1ccc(Cn2cc3c(c2-c2cc(OC)c(OC)c(OC)c2)CCc2cnoc2-3)cc1N | 34.7 | 9.31 | 12.9 | 12 | 100 | 70 | 90 | 240 |  |
| 30 | 2800 | 88 | COc1cc(Cn2cc3c(c2)-c2oncc2CC3)cc(OC)c1 | 38 | 0.8 | 7.1 | 30.5 | 40 | 20 | 20 | 290 | Activity (VL51 [9]): Active; Activity (MINO [10]): Active; Activity (VL51 [11]): Active; Activity (MINO [12]): Active; Activity (VL51 [13]): Active; Activity (MINO [14]): Active; Activity (PBMC): 15%; Activity (MINO [15]): Active; Activity (MINO [16]): Active; Activity (MINO [17]): Active; Activity (MINO [18]): Active; Activity (MINO [19]): Active; Activity (MINO [20]): Active; Activity (MINO [21]): Active |
|  | 4600 | 21 | c1ccc(Cn2cc3c(c2-c2ccccc2)CCc2cnoc2-3)cc1 |  |  |  |  |  |  |  | > 5000 |  |
| 70 | 2300 | 80 | COc1cc(Cn2cc3c(c2)-c2oncc2CC3)cc(OC)c1OC | 28.1 | 8.6 | 7.3 | 13.8 | 120 | 70 | 80 | 210 | Activity (VL51 [9]): Active; Activity (MINO [10]): Active; Activity (VL51 [11]): Active; Activity (MINO [12]): Active; Activity (VL51 [13]): Active; Activity (MINO [14]): Active; Activity (PBMC): 15% |
